Measurements: patent publication US20230013823A1, “INHIBITORS OF HUMAN IMMUNODEFICIENCY VIRUS REPLICATION” (VIV HEALTHCARE UK (No. 5) LIMITED, priority 2019, published 2023)

Tests used:
[1] = test system: recombinant NL4-3 virus (Renilla luciferase in nef); test: HIV cell culture assay (antiviral activity, luciferase readout in MT-2 cells); format: cell-based; details: Renilla, NL43
Method in brief: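 MT-2 cells were infected for 4-5 days with 293T-derived recombinant NL4-3 reporter virus in the presence of serially diluted compound. Antiviral activity was quantified as luciferase activity using a live-cell substrate. EC50 was derived from the median effect equation.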

[2] = Compound cytotoxicity, XTT-based colorimetric assay; format: cell-based; details: human; uninfected MT2 cells, day 4, XTT
Description: Compound cytotoxicity and the corresponding CC50 values were determined using the same protocol as described in the antiviral assay except that uninfected cells were used. Cytotoxicity was assessed on day 4 in uninfected MT2 cells by using an XTT (2,3-bis[2-Methoxy-4-nitro-5-sulfophenyl]-2H-tetrazolium-5-carboxyanilide inner salt)-based colorimetric assay (Sigma-Aldrich, St Louis, Mo.).

Row | SMILES | EC50 [1] [nM] | CC50 at 4 days [2] [nM]
1 | Cn1nc(NS(C)(=O)=O)c2c(Cl)ccc(-n3c([C@H](Cc4cc(F)cc(F)c4)NC(=O)Cn4nc(C(F)F)c5c4C(F)(F)[C@@H]4C[C@H]54)nc4cc(-c5csc(C(F)(F)F)n5)ccc4c3=O)c21 (atropisomer, axis not shown; (P)) [Example 1, N—((S)-1-((3P)-3-(4-chloro-1-methyl-3-(methylsulfonamido)-1H-indazol-7-yl)-4-oxo-7-(2-(trifluoromethyl)thiazol-4-yl)-3,4-dihydroquinazolin-2-yl)-2-(3,5-difluorophenyl)ethyl)-2-((3bS,4aR)-3-(difluoromethyl)-5,5-difluoro-3b,4,4a,5-tetrahydro-1H-cyclopropa[3,4]cyclopenta[1,2-c]pyrazol-1-yl)acetamide] | 0.091 | > 100
2 | Cn1nc(NS(C)(=O)=O)c2c(Cl)ccc(-n3c([C@H](Cc4cc(F)cc(F)c4)NC(=O)Cn4nc(C(F)F)c5c4C(F)(F)[C@H]4C[C@@H]54)nc4cc(-c5ccnn5C5CC5)ccc4c3=O)c21 (atropisomer, axis not shown; (P)) [Example 43, N—((S)-1-((3P)-3-(4-chloro-1-methyl-3-(methylsulfonamido)-1H-indazol-7-yl)-7-(1-cyclopropyl-1H-pyrazol-5-yl)-4-oxo-3,4-dihydroquinazolin-2-yl)-2-(3,5-difluorophenyl)ethyl)-2-((3bS,4aR)-3-(difluoromethyl)-5,5-difluoro-3b,4,4a,5-tetrahydro-1H-cyclopropa[3,4]cyclopenta[1,2-c]pyrazol-1-yl)acetamide] | 0.13 | > 100
3 | Cc1cc(-c2ccc3c(=O)n(-c4ccc(Cl)c5c(NS(C)(=O)=O)nn(C)c45)c([C@H](Cc4cc(F)cc(F)c4)NC(=O)Cn4nc(C(F)F)c5c4C(F)(F)[C@@H]4C[C@H]54)nc3c2)nn1CC(C)(F)F (atropisomer, axis not shown; (P)) [Example 68, N—((S)-1-((3P)-3-(4-chloro-1-methyl-3-(methylsulfonamido)-1H-indazol-7-yl)-7-(1-(2,2-difluoropropyl)-5-methyl-1H-pyrazol-3-yl)-4-oxo-3,4-dihydroquinazolin-2-yl)-2-(3,5-difluorophenyl)ethyl)-2-((3bS,4aR)-3-(difluoromethyl)-5,5-difluoro-3b,4,4a,5-tetrahydro-1H-cyclopropa[3,4]cyclopenta[1,2-c]pyrazol-1-yl)acetamide] | 0.096 | > 100
4 | Cn1nc(NS(C)(=O)=O)c2c(Cl)ccc(-n3c([C@H](Cc4cc(F)cc(F)c4)NC(=O)Cn4nc(C(F)F)c5c4C(F)(F)[C@H]4C[C@@H]54)nc4cc(-c5ccn(CC6CC6)n5)ccc4c3=O)c21 (atropisomer, axis not shown; (P)) [Example 31, N—((S)-1-((3P)-3-(4-chloro-1-methyl-3-(methylsulfonamido)-1H-indazol-7-yl)-7-(1-(cyclopropylmethyl)-1H-pyrazol-3-yl)-4-oxo-3,4-dihydroquinazolin-2-yl)-2-(3,5-difluorophenyl)ethyl)-2-((3bS,4aR)-3-(difluoromethyl)-5,5-difluoro-3b,4,4a,5-tetrahydro-1H-cyclopropa[3,4]cyclopenta[1,2-c]pyrazol-1-yl)acetamide] | 0.11 | > 500
5 | Cn1nc(NS(C)(=O)=O)c2c(Cl)ccc(-n3c([C@H](Cc4cc(F)cc(F)c4)NC(=O)Cn4nc(C(F)F)c5c4C(F)(F)[C@@H]4C[C@H]54)nc4cc(-c5ccn(CCOC(F)(F)F)n5)ccc4c3=O)c21 (atropisomer, axis not shown; (P)) [Example 54, N—((S)-1-((3P)-3-(4-chloro-1-methyl-3-(methylsulfonamido)-1H-indazol-7-yl)-4-oxo-7-(1-(2-(trifluoromethoxy)ethyl)-1H-pyrazol-3-yl)-3,4-dihydroquinazolin-2-yl)-2-(3,5-difluorophenyl)ethyl)-2-((3bS,4aR)-3-(difluoromethyl)-5,5-difluoro-3b,4,4a,5-tetrahydro-1H-cyclopropa[3,4]cyclopenta[1,2-c]pyrazol-1-yl)acetamide] | 0.098 | > 100
6 | Cn1nc(NS(C)(=O)=O)c2c(Cl)ccc(-n3c([C@H](Cc4cc(F)cc(F)c4)NC(=O)Cn4nc(C(F)(F)F)c5c4C(F)(F)[C@@H]4C[C@H]54)nc4cc(-c5ccn(CC(C)(F)F)n5)ccc4c3=O)c21 (atropisomer, axis not shown; (P)) [Example 66, N—((S)-1-((3P)-3-(4-chloro-1-methyl-3-(methylsulfonamido)-1H-indazol-7-yl)-7-(1-(2,2-difluoropropyl)-1H-pyrazol-3-yl)-4-oxo-3,4-dihydroquinazolin-2-yl)-2-(3,5-difluorophenyl)ethyl)-2-((3bS,4aR)-5,5-difluoro-3-(trifluoromethyl)-3b,4,4a,5-tetrahydro-1H-cyclopropa[3,4]cyclopenta[1,2-c]pyrazol-1-yl)acetamide] | 0.069 | > 100
7 | Cn1nccc1-c1ccc2c(=O)n(-c3ccc(Cl)c4c(NS(C)(=O)=O)nn(C)c34)c([C@H](Cc3cc(F)cc(F)c3)NC(=O)Cn3nc(C(F)F)c4c3C(F)(F)[C@@H]3C[C@H]43)nc2c1 (atropisomer, axis not shown; (P)) [Example 20, N—((S)-1-((3P)-3-(4-chloro-1-methyl-3-(methylsulfonamido)-1H-indazol-7-yl)-7-(1-methyl-1H-pyrazol-5-yl)-4-oxo-3,4-dihydroquinazolin-2-yl)-2-(3,5-difluorophenyl)ethyl)-2-((3bS,4aR)-3-(difluoromethyl)-5,5-difluoro-3b,4,4a,5-tetrahydro-1H-cyclopropa[3,4]cyclopenta[1,2-c]pyrazol-1-yl)acetamide] | 0.056 | > 500
8 | Cn1nc(NS(C)(=O)=O)c2c(Cl)ccc(-n3c([C@H](Cc4cc(F)cc(F)c4)NC(=O)Cn4nc(C(F)F)c5c4C(F)(F)[C@@H]4C[C@H]54)nc4cc(-c5cnn(CC(F)(F)F)c5)ccc4c3=O)c21 (atropisomer, axis not shown; (P)) [Example 41, N—((S)-1-((3P)-3-(4-chloro-1-methyl-3-(methylsulfonamido)-1H-indazol-7-yl)-4-oxo-7-(1-(2,2,2-trifluoroethyl)-1H-pyrazol-4-yl)-3,4-dihydroquinazolin-2-yl)-2-(3,5-difluorophenyl)ethyl)-2-((3bS,4aR)-3-(difluoromethyl)-5,5-difluoro-3b,4,4a,5-tetrahydro-1H-cyclopropa[3,4]cyclopenta[1,2-c]pyrazol-1-yl)acetamide] | 0.097 | > 100
9 | Cn1nc(NS(C)(=O)=O)c2c(Cl)ccc(-n3c([C@H](Cc4cc(F)cc(F)c4)NC(=O)Cn4nc(C(F)F)c5c4C(F)(F)[C@@H]4C[C@H]54)nc4cc(-c5ccn(CCC(F)(F)F)n5)ccc4c3=O)c21 (atropisomer, axis not shown; (P)) [Example 50, N—((S)-1-((3P)-3-(4-chloro-1-methyl-3-(methylsulfonamido)-1H-indazol-7-yl)-4-oxo-7-(1-(3,3,3-trifluoropropyl)-1H-pyrazol-3-yl)-3,4-dihydroquinazolin-2-yl)-2-(3,5-difluorophenyl)ethyl)-2-((3bS,4aR)-3-(difluoromethyl)-5,5-difluoro-3b,4,4a,5-tetrahydro-1H-cyclopropa[3,4]cyclopenta[1,2-c]pyrazol-1-yl)acetamide] | 0.066 | > 100
10 | Cn1nc(NS(C)(=O)=O)c2c(Cl)ccc(-n3c([C@H](Cc4cc(F)cc(F)c4)NC(=O)Cn4nc(C(F)F)c5c4C(F)(F)[C@@H]4C[C@H]54)nc4cc(-c5ncc(F)cc5F)ccc4c3=O)c21 (atropisomer, axis not shown; (P)) [Example 7, N—((S)-1-((3P)-3-(4-chloro-1-methyl-3-(methylsulfonamido)-1H-indazol-7-yl)-7-(3,5-difluoropyridin-2-yl)-4-oxo-3,4-dihydroquinazolin-2-yl)-2-(3,5-difluorophenyl)ethyl)-2-((3bS,4aR)-3-(difluoromethyl)-5,5-difluoro-3b,4,4a,5-tetrahydro-1H-cyclopropa[3,4]cyclopenta[1,2-c]pyrazol-1-yl)acetamide] | 0.17 | > 500
11 | CS(=O)(=O)Nc1nn(CCCF)c2c(-n3c([C@H](Cc4cc(F)cc(F)c4)NC(=O)Cn4nc(C(F)F)c5c4C(F)(F)[C@@H]4C[C@H]54)nc4cc(-c5ccn(CC(F)(F)C(F)F)n5)ccc4c3=O)ccc(Cl)c12 [Example 67, N—((S)-1-((3P)-3-(4-chloro-1-(3-fluoropropyl)-3-(methylsulfonamido)-1H-indazol-7-yl)-4-oxo-7-(1-(2,2,3,3-tetrafluoropropyl)-1H-pyrazol-3-yl)-3,4-dihydroquinazolin-2-yl)-2-(3,5-difluorophenyl)ethyl)-2-((3bS,4aR)-3-(difluoromethyl)-5,5-difluoro-3b,4,4a,5-tetrahydro-1H-cyclopropa[3,4]cyclopenta[1,2-c]pyrazol-1-yl)acetamide] | 0.049 | > 100
12 | Cn1nc(NS(C)(=O)=O)c2c(Cl)ccc(-n3c([C@H](Cc4cc(F)cc(F)c4)NC(=O)Cn4nc(C(F)F)c5c4C(F)(F)[C@@H]4C[C@H]54)nc4cc(-c5ccc6ncsc6c5)ccc4c3=O)c21 (atropisomer, axis not shown; (P)) [Example 44, N—((S)-1-(7-(benzo[d]thiazol-6-yl)-(3P)-3-(4-chloro-1-methyl-3-(methylsulfonamido)-1H-indazol-7-yl)-4-oxo-3,4-dihydroquinazolin-2-yl)-2-(3,5-difluorophenyl)ethyl)-2-((3bS,4aR)-3-(difluoromethyl)-5,5-difluoro-3b,4,4a,5-tetrahydro-1H-cyclopropa[3,4]cyclopenta[1,2-c]pyrazol-1-yl)acetamide] | 0.61 | > 100
